Patent publication US8592174B2, “Peptidase substrates” (bioMérieux, S.A., priority 2009, dated 2013)

Tests used:
Assay type in all cases: cell-based
[1] = test system: Enterococcus faecalis NCTC 775; assay: Peptidase detection on Columbia medium (Example 2); design: key to Growth: NG: No growth; 0.5: weak growth; 1: moderate growth; 2: good growth; key to Fluo. / Color / Color post-acid.: —: no color; conditions: 80 mg in 400 ml Columbia; 24 h 37° C.
[2] = test system: Salmonella typhimurium NCTC 74; assay: Peptidase detection on Columbia medium (Example 2); design: key to Growth: NG: No growth; 0.5: weak growth; 1: moderate growth; 2: good growth; key to Color: —: no color; conditions: 80 mg in 400 ml Columbia; 24 h 37° C.
[3] = test system: Staphylococcus aureus NCTC 6 571; assay: Peptidase detection on Columbia medium (Example 2); design: key to Growth: NG: No growth; 0.5: weak growth; 1: moderate growth; 2: good growth; key to Fluo. / Color / Color post-acid.: —: no color; conditions: 80 mg in 400 ml Columbia; 24 h 37° C.
Experimental: (§2) The 6 media were distributed into Petri dishes 90 mm in diameter, in a proportion of 20 ml per dish.
(§3) Seventeen strains of microorganisms stemming from collections and belonging to various species of bacteria and yeasts are inoculated in spots of approximately 10 000 colony-forming units.
(§4) The media are incubated for 24 hours at 37° C., and then the colonies formed are examined visually, with or without the addition of acid and under a UV lamp at 365 nm.

[4] = test system: Serratia marcescens NCTC 10 211; assay: Peptidase detection on Columbia medium (Example 2); design: key to Growth: NG: No growth; 0.5: weak growth; 1: moderate growth; 2: good growth; conditions: 80 mg in 400 ml Columbia; 24 h 37° C.
Experimental: as §2, §3, §4

[5] = test system: Staphylococcus epidermidis NCTC 11 047; assay: Peptidase detection on Columbia medium (Example 2); design: key to Fluo. / Color / Color post-acid.: —: no color; conditions: 80 mg in 400 ml Columbia; 24 h 37° C.
Experimental: as §2, §3, §4

[6] = test system: Providencia rettgeri NCTC 7 475; assay: Peptidase detection on Columbia medium (Example 2); design: key to Growth: NG: No growth; 0.5: weak growth; 1: moderate growth; 2: good growth; key to Color: —: no color; conditions: 80 mg in 400 ml Columbia; 24 h 37° C.
Experimental: as §2, §3, §4

[7] = test system: Candida albicans ATCC 90 028; assay: Peptidase detection on Columbia medium (Example 2); design: key to Growth: NG: No growth; 0.5: weak growth; 1: moderate growth; 2: good growth; key to Fluo. / Color / Color post-acid.: —: no color; conditions: 80 mg in 400 ml Columbia; 24 h 37° C.
Experimental: as §2, §3, §4

[8] = test system: Enterobacter cloacae NCTC 11 936; assay: Peptidase detection on Columbia medium (Example 2); design: key to Growth: NG: No growth; 0.5: weak growth; 1: moderate growth; 2: good growth; conditions: 80 mg in 400 ml Columbia; 24 h 37° C.
[9] = test system: Escherichia coli NCTC 10 418; assay: Peptidase detection on Columbia medium (Example 2); design: key to Growth: NG: No growth; 0.5: weak growth; 1: moderate growth; 2: good growth; conditions: 80 mg in 400 ml Columbia; 24 h 37° C.
Experimental: as §2, §3, §4

[10] = test system: Yersinia enterocolitica NCTC 11 176; assay: Peptidase detection on Columbia medium (Example 2); design: key to Growth: NG: No growth; 0.5: weak growth; 1: moderate growth; 2: good growth; key to Color: —: no color; conditions: 80 mg in 400 ml Columbia; 24 h 37° C.
Experimental: as §2, §3, §4

[11] = test system: Staphylococcus aureus NCTC 11 939; assay: Peptidase detection on Columbia medium (Example 2); design: key to Growth: NG: No growth; 0.5: weak growth; 1: moderate growth; 2: good growth; conditions: 80 mg in 400 ml Columbia; 24 h 37° C.
Experimental: as §2, §3, §4

[12] = test system: Pseudomonas aeruginosa NCTC 10 662; assay: Peptidase detection on Columbia medium (Example 2); design: key to Growth: NG: No growth; 0.5: weak growth; 1: moderate growth; 2: good growth; conditions: 80 mg in 400 ml Columbia; 24 h 37° C.
Experimental: as §2, §3, §4

[13] = test system: Enterococcus faecium NCTC 7 171; assay: Peptidase detection on Columbia medium (Example 2); design: key to Growth: NG: No growth; 0.5: weak growth; 1: moderate growth; 2: good growth; key to Fluo. / Color / Color post-acid.: —: no color; conditions: 80 mg in 400 ml Columbia; 24 h 37° C.
[14] = test system: Listeria monocytogenes NCTC 11 994; assay: Peptidase detection on Columbia medium (Example 2); design: key to Growth: NG: No growth; 0.5: weak growth; 1: moderate growth; 2: good growth; key to Fluo. / Color / Color post-acid.: —: no color; conditions: 80 mg in 400 ml Columbia; 24 h 37° C.
Experimental: as §2, §3, §4

[15] = test system: Bacillus subtilis NCTC 9 372; assay: Peptidase detection on Columbia medium (Example 2); design: key to Growth: NG: No growth; 0.5: weak growth; 1: moderate growth; 2: good growth; conditions: 80 mg in 400 ml Columbia; 24 h 37° C.
Experimental: as §2, §3, §4

[16] = test system: Candida glabrata NCPF 3 943; assay: Peptidase detection on Columbia medium (Example 2); design: key to Growth: NG: No growth; 0.5: weak growth; 1: moderate growth; 2: good growth; key to Fluo. / Color / Color post-acid.: —: no color; conditions: 80 mg in 400 ml Columbia; 24 h 37° C.
Experimental: as §2, §3, §4

[17] = test system: Streptococcus pyogenes NCTC 8 306; assay: Peptidase detection on Columbia medium (Example 2); design: key to Fluo. / Color / Color post-acid.: —: no color; conditions: 80 mg in 400 ml Columbia; 24 h 37° C.
[18] = test system: Enterococcus faecium 0610021; assay: Peptidase detection on Columbia medium (Example 4); conditions: 75 mg/l, 48 h 37° C.
Text: (§1) After homogenization, the media were distributed into 120-mm-squared dishes. A medium serving as a growth control (Columbia) and denoted C was also poured.

[19] = test system: Serratia marcescens 7303004; assay: Peptidase detection on Columbia medium (Example 4); conditions: 75 mg/l, 48 h 37° C.
Text: as §1

Escherichia coli 0002005 = assay: Peptidase detection on Columbia medium (Example 4); conditions: 75 mg/l, 48 h 37° C.
Text: as §1

[20] = test system: Listeria monocytogenes 8812049; assay: Peptidase detection on Columbia medium (Example 4); conditions: 75 mg/l, 48 h 37° C.
Text: as §1

[21] = test system: Salmonella ser typhimurium 0801029; assay: Peptidase detection on Columbia medium (Example 4); conditions: 75 mg/l, 48 h 37° C.
Text: as §1

[22] = test system: Citrobacter freundii 0006197; assay: Peptidase detection on Columbia medium (Example 4); conditions: 75 mg/l, 48 h 37° C.
Text: as §1

[23] = test system: Staphylococcus epidermidis 0203050; assay: Peptidase detection on Columbia medium (Example 4); conditions: 75 mg/l, 48 h 37° C.
Text: as §1

[24] = test system: Enterobacter cloacae 0604040; assay: Peptidase detection on Columbia medium (Example 4); conditions: 75 mg/l, 48 h 37° C.
Text: as §1

MRSA 0303033 = assay: Peptidase detection on Columbia medium (Example 4); conditions: 75 mg/l, 48 h 37° C.
Text: as §1

[25] = test system: Yersinia enterocolitica 7605019; assay: Peptidase detection on Columbia medium (Example 4); conditions: 75 mg/l, 48 h 37° C.
Text: as §1

Candida glabrata 0408083 = assay: Peptidase detection on Columbia medium (Example 4); conditions: 75 mg/l, 48 h 37° C.
Text: as §1

[26] = test system: Bacillus subtilis 0204038; assay: Peptidase detection on Columbia medium (Example 4); conditions: 75 mg/l, 48 h 37° C.
Text: as §1

[27] = test system: Staphylococcus aureus 7811049; assay: Peptidase detection on Columbia medium (Example 4); conditions: 75 mg/l, 48 h 37° C.
Text: as §1

[28] = test system: Burkholderia cepacia 7507032; assay: Peptidase detection on Columbia medium (Example 4); conditions: 75 mg/l, 48 h 37° C.
Text: as §1

[29] = test system: Enterococcus faecalis 0008192; assay: Peptidase detection on Columbia medium (Example 4); conditions: 75 mg/l, 48 h 37° C.
Text: as §1

[30] = test system: Providencia rettgeri 0706064; assay: Peptidase detection on Columbia medium (Example 4); conditions: 75 mg/l, 48 h 37° C.
Text: as §1

[31] = test system: Acinetobacter baumannii 0604029; assay: Peptidase detection on Columbia medium (Example 4); conditions: 75 mg/l, 48 h 37° C.
Text: as §1

[32] = test system: Pseudomonas aeruginosa 0001001; assay: Peptidase detection on Columbia medium (Example 4); conditions: 75 mg/l, 48 h 37° C.
Text: as §1

[33] = test system: Morganella morganii 9207053; assay: Peptidase detection on Columbia medium (Example 4); conditions: 75 mg/l, 48 h 37° C.
Text: as §1

[34] = test system: Klebsiella pneumoniae 0008009; assay: Peptidase detection on Columbia medium (Example 4); conditions: 75 mg/l, 48 h 37° C.
Text: as §1

Candida albicans 0801025 = assay: Peptidase detection on Columbia medium (Example 4); conditions: 75 mg/l, 48 h 37° C.
Text: as §1

[35] = test system: Streptococcus pyogenes 9806380; assay: Peptidase detection on Columbia medium (Example 4); conditions: 75 mg/l, 48 h 37° C.
Text: as §1

## C[n+]1ccc(C=Cc2ccc(NC(=O)[C@@H](N)CC(N)=O)cc2)c2ccccc21.O=C(O)C(F)(F)F.O=C([O-])C(F)(F)F [Asn-ASQM^+, L-asparaginyl-4-(4′-amidostyryl)-N-methylquinolinium-bis-TFA]
[1]
  Color: —
  Growth: 2
[2]
  Color: —
  Growth: 2
[3]
  Color: —
  Growth: 0.5
[4]
  Color: Pale orange
  Growth: 2
[5]
  Color: —
[6]
  Color: —
  Growth: 2
[7]
  Color: —
  Growth: 2
[8]
  Color: Pale orange
  Growth: 2
[9]
  Color: Pale orange
  Growth: 2
[10]
  Color: —
  Growth: 2
[11]
  Color: Orange
  Growth: 2
[12]
  Color: Pale orange
  Growth: 2
[13]
  Color: —
  Growth: 2
[14]
  Color: —
  Growth: 2
[15]
  Color: Orange
  Growth: 2
[16]
  Color: —
  Growth: 0.5
[17]
  Color: —

## C[C@H](N)C(=O)N[C@@H](C)C(=O)Nc1ccc(C=Cc2cc[n+](C)c3ccccc23)cc1.Cl.[Cl-] [L-alanyl-L-alanyl-4-(4′-amidostyryl)-N-methylquinolinium (dichloride)]
[18]
  Color: −
  Coloration strength: −
[18]; control C: ++
  Growth: ++
[19]
  Color: orange
  Coloration strength: +
[19]; control C: ++
  Growth: ++
Escherichia coli 0002005
  Color: −
  Coloration strength: −
Escherichia coli 0002005; control C: ++
  Growth: ++
[20]
  Color: orange
  Coloration strength: +
[20]; control C: ++
  Growth: ++
[21]
  Color: −
  Coloration strength: −
[21]; control C: ++
  Growth: ++
[22]
  Color: −
  Coloration strength: −
[22]; control C: ++
  Growth: ++
[23]
  Color: −
  Coloration strength: −
[23]; control C: ++
  Growth: ++
[24]
  Color: orange
  Coloration strength: +
[24]; control C: ++
  Growth: ++
MRSA 0303033
  Color: −
  Coloration strength: −
MRSA 0303033; control C: ++
  Growth: ++
[25]
  Color: −
  Coloration strength: −
[25]; control C: ++
  Growth: ++
Candida glabrata 0408083
  Coloration strength: −
Candida glabrata 0408083; control C: +
  Growth: −
[26]
  Color: −
  Coloration strength: −
[26]; control C: ++
  Growth: ++
[27]
  Color: −
  Coloration strength: −
[27]; control C: ++
  Growth: ++
[28]
  Color: −
  Coloration strength: −
[28]; control C: ++
  Growth: ++
[29]
  Color: −
  Coloration strength: −
[29]; control C: ++
  Growth: ++
[30]
  Color: −
  Coloration strength: −
[30]; control C: ++
  Growth: ++
[31]
  Color: orange
  Coloration strength: +
[31]; control C: ++
  Growth: ++
[32]
  Color: −
  Coloration strength: −
[32]; control C: ++
  Growth: ++
[33]
  Color: −
  Coloration strength: −
[33]; control C: ++
  Growth: ++
[34]
  Color: orange
  Coloration strength: +
[34]; control C: ++
  Growth: ++
Candida albicans 0801025
  Coloration strength: −
Candida albicans 0801025; control C: ++
  Growth: +
[35]
  Color: orange
  Coloration strength: +
[35]; control C: ++
  Growth: ++
